Patent US6706706B2, “Non-nucleoside reverse transcriptase inhibitors” (priority 2002, dated 2004)

What was measured:
[1] = target: HIV-1 RT wild-type (WT) (Human immunodeficiency virus type 1 group M subtype B, UniProt P03366); assay: biochemical
Text: This activity can be quantitatively measured in a cell-free enzyme assay and is based upon the observation that reverse transcriptase is able to use a synthetic template poly r(C) primed with a biotinylated oligo d(G) to transcribe a radio-labeled DNA strand utilizing 3H-dGTP as a substrate.

[2] = system: HIV replication in C8166 cells, virus coding for wild type reverse transcriptase; assay: microbe, parasite or virus in culture; format: cell-based, HIV-1; conditions: Human immunodeficiency virus 1, 72 h, three days, extracellular p24
Method: The compound of the invention was tested for its ability to inhibit HIV replication in cell culture in a 96-well plate assay. Complete RPMI 1640, consisting of RPMI 1640+10% fetal bovine serum, 10 μg/ml gentamycin and 10 μM β-mercaptoethanol was used for dilution of the compound as well as cell growth medium. The T lymphocyte cell line C8166 was infected at a multiplicity of infection of 0.001 with viruses coding for wild type and mutant reverse transcriptase. Cells were then incubated for three days in the presence of serial dilutions of the compound of the invention. The supernatant was pooled from eight replica wells and the concentration of extracellular p24 was determined using a commercially available HIV-1 p24 antigen assay kit (Beckman-Coulter®). The level of inhibition (% inhibition) was calculated with the following equation: [formula]

`CCN1c2ncc(CCOc3ccc(C(=O)O)c(F)c3)cc2C(=O)N(C)c2cccnc21` [Entry 1025] gave an IC50 [1] of 50 to 100 nM.

`CCc1cc(C(=O)OC)ccc1OCCc1cnc2c(c1)C(=O)N(C)c1cccnc1N2CC` [Entry 1031] gave an IC50 [1] of less than 50 nM.

`CCN1c2ncc(CCOc3ccc(C(=O)O)cc3C(F)(F)F)cc2C(=O)N(C)c2cccnc21` [Entry 1027] gave an IC50 [1] of 50 to 100 nM.

With `CCN1c2ncccc2NC(=O)c2cc(CCOc3ccc(C(=O)O)cc3C)cnc21` [Entry 1029] the EC50 [2] was less than 50 nM and the IC50 [1] was less than 50 nM.

Compound `CCN1c2ncc(CCOc3ccc(C(=O)O)cc3C)cc2C(=O)Nc2c(C)cc(Cl)nc21` [Entry 1016] has an IC50 [1] of less than 50 nM.

`CCN1c2ncc(CCOc3ccc(C(=O)O)c(O)c3C)cc2C(=O)N(C)c2cccnc21` [Entry 1004] was tested, and the EC50 [2] was less than 50 nM and the IC50 [1] was less than 50 nM.

Compound `CCN1c2ncc(CCOc3ccc(C(=O)O)cc3Cl)cc2C(=O)N(C)c2cccnc21` [Entry 1023] has an EC50 [2] of less than 50 nM and an IC50 [1] of 50 to 100 nM.

`CCN1c2ncc(CCOc3ccc(C(=O)OC)cc3C)cc2C(=O)N(C)c2cccnc21` [Entry 1030] showed an EC50 [2] of less than 50 nM and an IC50 [1] of less than 50 nM.

`CCN1c2ncc(CCOc3ccc(CCC(=O)O)cc3C)cc2C(=O)N(C)c2ccc(Cl)nc21` [Entry 1007] gave an EC50 [2] of less than 50 nM and an IC50 [1] of less than 50 nM.

For `CCN1c2ncc(CCOc3ccc(C(=O)OC)cc3Cl)cc2C(=O)N(C)c2cccnc21` [Entry 1032], the IC50 [1] was less than 50 nM.

For `CCN1c2ncc(CCOc3ccc(CC(=O)O)cc3Cl)cc2C(=O)N(C)c2cccnc21` [Entry 1011], the IC50 [1] was less than 50 nM.

Work on `CCN1c2ncc(CCOc3ccc(CCC(=O)O)cc3C)cc2C(=O)N(C)c2cccnc21` [Entry 1008] yielded an EC50 [2] of less than 50 nM and an IC50 [1] of less than 50 nM.

`CCN1c2ncc(CCOc3ccc(C(=O)OC)cc3C(F)(F)F)cc2C(=O)N(C)c2cccnc21` [Entry 1033] showed an IC50 [1] of less than 50 nM.

With `CCN1c2ncc(CCOc3ccc(C=CC(=O)O)cc3C)cc2C(=O)N(C)c2ccc(Cl)nc21` [Entry 1009] the EC50 [2] was less than 50 nM and the IC50 [1] was less than 50 nM.

For `CCN1c2ncc(CCOc3ccc(C(=O)O)cc3Br)cc2C(=O)N(C)c2cccnc21` [Entry 1005], the IC50 [1] was less than 50 nM.

`CCN1c2ncc(CCOc3ccc(C(=O)O)c(Cl)c3)cc2C(=O)N(C)c2cccnc21` [Entry 1026] gave an IC50 [1] of 50 to 100 nM.

`CCN1c2ncc(CCOc3ccc(C=CC(=O)O)cc3C)cc2C(=O)N(C)c2cccnc21` [Entry 1010] gave an EC50 [2] of less than 50 nM and an IC50 [1] of less than 50 nM.

Compound `CCOc1ccc2c(n1)N(CC)c1ncc(CCOc3ccc(C(=O)OC)cc3C)cc1C(=O)N2C` [Entry 1034] has an IC50 [1] of less than 50 nM.

`CCN1c2ncc(CCOc3ccc(C(=O)O)cc3C)cc2C(=O)Nc2c(C)ccnc21` [Entry 1018] was tested, and the EC50 [2] was less than 50 nM and the IC50 [1] was less than 50 nM.

Compound `CCN1c2ncc(CCOc3ccc(C(=O)O)cc3[N+](=O)[O-])cc2C(=O)N(C)c2cccnc21` [Entry 1022] has an EC50 [2] of 50 to 100 nM and an IC50 [1] of 50 to 100 nM.

With `CCN1c2ncc(CCOc3ccc(C(=O)O)cc3C)cc2C(=O)N(C)c2cccnc21` [Entry 1002] the EC50 [2] was less than 50 nM and the IC50 [1] was less than 50 nM.

`CCOc1ccc2c(n1)N(CC)c1ncc(CCOc3ccc(C(=O)O)cc3C)cc1C(=O)N2C` [Entry 1021] showed an IC50 [1] of less than 50 nM.

`CCc1cc(C(=O)O)ccc1OCCc1cnc2c(c1)C(=O)N(C)c1cccnc1N2CC` [Entry 1003] showed an IC50 [1] of less than 50 nM.

Compound `CCN1c2ncc(CCOc3ccc(C(=O)O)cc3C)cc2C(=O)N(C)c2ccc(C)nc21` [Entry 1017] has an IC50 [1] of less than 50 nM.

Work on `CCN1c2ncc(CCOc3ccc(C(=O)O)cc3C)cc2C(=O)N(C)c2ccc(Cl)nc21` [Entry 1015] yielded an IC50 [1] of less than 50 nM.

In the case of `CCN1c2ncc(CCOc3ccc(C(=O)O)c(C)c3C)cc2C(=O)N(C)c2cccnc21` [Entry 1001], the EC50 [2] is reported as less than 50 nM and the IC50 [1] is reported as less than 50 nM.

In the case of `CCN1c2ncc(CCOc3ccc(CC(=O)O)cc3C)cc2C(=O)N(C)c2cccnc21` [Entry 1014], the EC50 [2] is reported as less than 50 nM and the IC50 [1] is reported as less than 50 nM.

`CCN1c2ncc(CCOc3ccc(C(=O)O)cc3C)cc2C(=O)N(C)c2ccc(F)nc21` [Entry 1020] showed an IC50 [1] of less than 50 nM.

With `CCN1c2ncc(CCOc3ccc(C(C)C(=O)O)cc3C)cc2C(=O)N(C)c2cccnc21` (stereo not drawn) [Entry 1006] the IC50 [1] was less than 50 nM.

`CCN1c2ncc(CCOc3ccc(C(=O)O)cc3C)cc2C(=O)N(C)c2ccc(OC)nc21` [Entry 1019] was tested, and the IC50 [1] was less than 50 nM.

`CCN1c2ncc(CCOc3ccc(CC(=O)O)cc3Br)cc2C(=O)N(C)c2cccnc21` [Entry 1012] showed an IC50 [1] of less than 50 nM.

`CCN1c2ncc(CCOc3ccc(C(=O)O)cc3C)cc2C(=O)N(C)c2ccc(N(C)C)nc21` [Entry 1028] gave an IC50 [1] of less than 50 nM.

With `CCN1c2ncc(CCOc3ccc(CC(=O)O)c(C)c3C)cc2C(=O)N(C)c2cccnc21` [Entry 1013] the IC50 [1] was less than 50 nM.

`CCN1c2ncc(CCOc3ccc(C(=O)O)c(N)c3)cc2C(=O)N(C)c2cccnc21` [Entry 1024] was tested, and the IC50 [1] was less than 50 nM.

`CCN1c2ncc(CCOc3ccc(C(=O)OC)c(F)c3)cc2C(=O)N(C)c2cccnc21` [Entry 1035] was tested, and the IC50 [1] was less than 50 nM.
